Each block holds one molecule with its values, some of them ahead of it.
How the values were obtained:
[1] = Micelle formation in perfluorooctanes by FTIR (C-H stretching frequency); format: physicochemical; settings: in F-octanes
Experimental: A series of solutions of CF3 (CF2) 7 (CH2) 15 CH3 (F8H16; 0.02 mol/L to 0.2 mol/L) were prepared in F-octanes (purity≥98%) and the frequency of the carbon to hydrogen (--C--H) stretching mode (T=50° C.) measured using FTIR (Fourier Transform Infrared Spectroscopy). The formation of F8H16 micelles in a fluorocarbon continuous phase results in the transfer of the F8H16 hydrocarbon groups from a fluorocarbon rich environment in the molecular solution to a hydrocarbon rich environment at the interior of the micelles. The occurrence of this phase change can be measured as a change in the FTIR stretching frequency for the carbon-hydrogen bonds in the --CH2 groups of the FmHn molecules. […] The inflection point in the curve confirmed the existence of F8H16 micelles and was used to define the critical micelle concentration at about 0.05 mol/L.
A series of solutions of CF3 (CF2) 5 (CH2) 13 CH3 (F6H14; 0.02 mol/L to 0.2 mol/L) were prepared in F-octanes (purity≥98%) and the frequency of the carbon to hydrogen (--C--H) stretching mode (T=25° C.) measured using FTIR. The formation of F6H14 micelles was measured as a change in the FTIR stretching frequency for the carbon-hydrogen bonds in the --CH2 groups of the FmHn molecules. […] The inflection point in the curve confirmed the existence of F6H14 micelles and was used to define the critical micelle concentration at about 0.1 mol/L.

[2] = Titration of hydrocarbon oil into F-octanes until phase separation; solubilization by diblock dispersing agent; settings: for amount of hydrocarbon oil at which phase separation occurred: titrated into F-Octanes (8.82 g), before dispersing agent
[3] = cited from earlier work; for Log Po/w: octanol/water

SMILES: CCCCCCCCCCCCCCC(F)(F)C(F)(F)C(F)(F)C(F)(F)C(F)(F)C(F)(F)F [Example F6H14]
critical micelle concentration ([1]; T=25° C.): about 0.1 mol/L

amount of hydrocarbon oil at which phase separation occurred [2]: 1.70 mL | solubilization in F-Octanes ([2]; with F8H16 (7.82%, w/v)): 36.5 %, v/v
SMILES: CCCCCC [n-hexane]

SMILES: CCCCC(CC)COC(=O)c1ccc(N(C)C)cc1 (stereo not drawn) [^14 C-padimate-o]
Octanol/water partition coefficient Po/w [3]: 3.98 × 10^6

SMILES: CCCCNc1ccc(C(=O)OCCN(C)C)cc1 [tetracaine]
Octanol/water partition coefficient Po/w [3]: 79.4

SMILES: CC(=O)[C@@]1(O)CC[C@H]2[C@@H]3C[C@H](C)C4=CC(=O)C=C[C@]4(C)[C@@]3(F)[C@@H](O)C[C@@]21C [^3 H-fluorometholone]
Octanol/water partition coefficient Po/w [3]: 1.26 × 10^2

SMILES: CCCCCCCCCCCCCCCCC(F)(F)C(F)(F)C(F)(F)C(F)(F)C(F)(F)C(F)(F)C(F)(F)C(F)(F)F [Example F8H16, 1-(F-octyl)hexadecane]
critical micelle concentration ([1]; T=50° C.): about 0.05 mol/L

SMILES: CC(C)(C)NCC(O)COc1cccc2c1CCCC2=O (stereo not drawn) [^14 C-bunolol]
Octanol/water partition coefficient Po/w [3]: 2.51 × 10^2

SMILES: FC(F)(F)C(Cl)Br (stereo not drawn) [halothane]
Octanol/water partition coefficient Po/w [3]: 2.00 × 10^2 | Log Po/w [3]: 2.30

SMILES: COc1ccc(C(=O)CC(=O)c2ccc(C(C)(C)C)cc2)cc1 [^3 H-parsol 1789]
Octanol/water partition coefficient Po/w [3]: 5.0 × 10^6 | Log Po/w [3]: 6.7

SMILES: Clc1cccc(Cl)c1N=C1NCCN1 [^3 H-clonidine]
Octanol/water partition coefficient Po/w [3]: 25.1

SMILES: COC(=O)c1ccccc1O [methyl salicylate]
amount of hydrocarbon oil at which phase separation occurred [2]: 0.01 to 0.02 mL | solubilization in F-Octanes ([2]; with F6H14 (17.3%, w/v)): 2.2 %, v/v

Reference: patent US5733526A, “Hydrocarbon oil/fluorochemical preparations and methods of use” (priority 1995, dated 1998)
